Experiment [1] concerns Rattus norvegicus. The experiment can be described thus: Percent inhibition of serum creatinine by the compound given as ratio of Cr value in treated to vehicle treated ones after intraperitoneal administration of 1 mg/kg of compound to rats(vehicle 4.91+/-0.10). Format: functional. Conditions: ip.
For experiment [2], the system named is Rattus norvegicus. Description: Ratio of urinary excretion value (urinary volume) in treated rats to that in control rats, at a peroral dose of 6.25 mg/Kg. Format: functional, Urine.
A further experiment has as its target Adenosine A2 receptor (Rattus norvegicus, UniProt P29276+P30543).
Experiment [3] deals with Rattus norvegicus. Description: Urea nitrogen concentration measured after intraperitoneal administration of 1 mg/kg of compound to rats(vehicle 154+/-7). Format: functional.
For experiment [4], the system named is Rattus norvegicus. The experiment can be described thus: Ratio of urinary excretion value (Na+ concentration) in treated rats to that in control rats, at a peroral dose of 6.25 mg/Kg. Format: functional, Urine.
Experiment [5] deals with Rattus norvegicus. Description: Serum creatinine concentration measured after intraperitoneal administration of 1 mg/kg of compound to rats(vehicle 4.91+/-0.10). Format: functional.
Experiment [6] concerns Rattus norvegicus. The experiment can be described thus: Percent inhibition of Urea nitrogen by the compound given as ratio of UN value in treated to vehicle treated ones after intraperitoneal administration of 1 mg/kg of compound to rats(vehicle 154+/-7). Conditions: ip. The format is functional.
The target of a further experiment is T1, Adenosine receptor A1 (Cavia porcellus, UniProt P47745).
T1 sequence (P47745 whole entry): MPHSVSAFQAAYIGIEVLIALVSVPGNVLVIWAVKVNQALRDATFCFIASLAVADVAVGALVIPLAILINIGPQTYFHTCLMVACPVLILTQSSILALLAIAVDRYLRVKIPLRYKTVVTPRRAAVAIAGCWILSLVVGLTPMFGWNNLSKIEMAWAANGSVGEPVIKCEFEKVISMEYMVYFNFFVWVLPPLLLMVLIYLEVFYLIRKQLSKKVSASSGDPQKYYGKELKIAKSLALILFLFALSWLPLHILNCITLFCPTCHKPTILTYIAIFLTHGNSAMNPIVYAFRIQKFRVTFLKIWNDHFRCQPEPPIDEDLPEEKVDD

The test system of experiment [7] is Rattus norvegicus. The experiment can be described thus: Ratio of urinary excretion value (Na+ concentration) in treated rats to that in control rats, at a peroral dose of 0.1 mg/Kg. The format is functional, Urine.
In experiment [8] the test system is Rattus norvegicus. The experiment can be described thus: Oral diuretic activity was measured after oral administration of 0.1 mg/kg to rats(control volume is 0.96+/-0.09). The format is functional, Urine.
The subject of experiment [9] is Rattus norvegicus. The experiment can be described thus: Serum creatinine concentration measured after intraperitoneal administration of 1 mg/kg of compound to rats(vehicle 4.5+/-0.24). Format: functional.
Experiment [10] concerns Rattus norvegicus. The experiment can be described thus: Effect on urinary excretion potassium and sodium after oral administration of 0.4 mg/kg to rats(potassium and sodium excretion in control rat is 0.0.169+/-0.012). The format is functional, Urine.
Experiment [11] relates to Rattus norvegicus. Description: Urea nitrogen concentration measured after intraperitoneal administration of 1 mg/kg of compound to rats(vehicle 151.5+/-7.4). Format: functional.
In experiment [12] the test system is Rattus norvegicus. The experiment can be described thus: Serum creatinine concentration measured after intraperitoneal administration of 0.1 mg/kg of compound to rats(vehicle 5.43+/-0.11). Format: functional.
In experiment [13] the test system is Rattus norvegicus. Description: Ratio of urinary excretion value (Na+ concentration) in treated rats to that in control rats, at a peroral dose of 1.6 mg/Kg. The format is functional, Urine.
Experiment [14] relates to Rattus norvegicus. The experiment can be described thus: Oral diuretic activity was measured after oral administration of 1.6 mg/kg to rats(control volume is 1.12+/-0.05). The format is functional, Urine.
Experiment [15] deals with Rattus norvegicus. Description: Ratio of urinary excretion value (urinary volume) in treated rats to that in control rats, at a peroral dose of 0.1 mg/Kg. Format: functional, Urine.
The subject of experiment [16] is Rattus norvegicus. The experiment can be described thus: Ratio of urinary excretion value (urinary volume) in treated rats to that in control rats, at a peroral dose of 0.4 mg/Kg. Format: functional, Urine.
Experiment [17] deals with Rattus norvegicus. Description: Effect on urinary excretion potassium and sodium after oral administration of 1.6 mg/kg to rats(potassium and sodium excretion in control rat is 0.189+/-0.005). The format is functional, Urine.
Experiment [18] relates to Rattus norvegicus. The experiment can be described thus: Ratio of sodium ion/potassium ion concentration in treated rats to that in control rats, at a peroral dose of 1.6 mg/Kg. Format: functional.
The test system of experiment [19] is Rattus norvegicus. The experiment can be described thus: Urea nitrogen concentration measured after intraperitoneal administration of 0.1 mg/kg of compound to rats(vehicle 141.3+/-8.3). Format: functional.
In experiment [20] the test system is Rattus norvegicus. The experiment can be described thus: Ratio of sodium ion/potassium ion concentration in treated rats to that in control rats, at a peroral dose of 0.4 mg/Kg. Format: functional.
The subject of experiment [21] is Rattus norvegicus. Description: Oral diuretic activity was measured after oral administration of 0.4 mg/kg to rats(control volume is 0.97+/-0.05). The format is functional, Urine.
Experiment [22] relates to Rattus norvegicus. The experiment can be described thus: Ratio of sodium ion/potassium ion concentration in treated rats to that in control rats, at a peroral dose of 0.1 mg/Kg. Format: functional.
Experiment [23] has as its system Rattus norvegicus. The experiment can be described thus: Oral diuretic activity was measured after oral administration of 0.01 mg/kg to rats(control volume is 1.05+/-0.11). Format: functional, Urine.
Experiment [24] relates to Rattus norvegicus. Description: Ratio of urinary excretion value (Na+ concentration) in treated rats to that in control rats, at a peroral dose of 0.01 mg/Kg. The format is functional, Urine.
For experiment [25], the species on record is Rattus norvegicus. The experiment can be described thus: Percent inhibition of serum creatinine by the compound given as ratio of Cr value in treated to vehicle treated ones. The format is functional.
For experiment [26], the system named is Rattus norvegicus. Description: Ratio of urinary excretion value (urinary volume) in treated rats to that in control rats, at a peroral dose of 0.01 mg/Kg. Format: functional, Urine.
Experiment [27] relates to Rattus norvegicus. Description: Ratio of urinary excretion value (Na+ concentration) in treated rats to that in control rats, at a peroral dose of 0.4 mg/Kg. Format: functional, Urine.
Experiment [28] concerns Rattus norvegicus. Description: Effect on urinary excretion potassium and sodium after oral administration of 0.1 mg/kg to rats(potassium and sodium excretion in control rat is 0.147+/-0.015). The format is functional, Urine.
The test system of experiment [29] is Rattus norvegicus. Description: Effect on urinary excretion potassium and sodium after oral administration of 0.01 mg/kg to rats(potassium and sodium excretion in control rat is 0.180+/-0.017). The format is functional, Urine.
Experiment [30] deals with Rattus norvegicus. The experiment can be described thus: Ratio of urinary excretion value (urinary volume) in treated rats to that in control rats, at a peroral dose of 1.6 mg/Kg. The format is functional, Urine.
Experiment [31] has as its system Rattus norvegicus. Description: Ratio of sodium ion/potassium ion concentration in treated rats to that in control rats, at a peroral dose of 0.01 mg/Kg. The format is functional.

“And” between values parts separate entries of the source, which are not always exact repeats. Equal values may be shown once.

Description for Adenosine receptor A1: Binding affinity against adenosine A1 receptor in guinea pig forebrain membranes using N6-[3H]cyclohexyladenosine as radioligand

Regarding `CCCn1c(=O)[nH]c(=O)c2[nH]c(C3CCCC3)nc21`, the inhibition in vivo at 1 mg/kg is 28% in the experiment on Rattus norvegicus [1] and 24% in the experiment on Rattus norvegicus [6]. Besides, the figures for the T/C in the experiment on Rattus norvegicus [2] and with Rattus norvegicus [4] were 1.76 and 2.07, respectively. Also, the figures for the Ki at Adenosine A2 receptor and on Adenosine receptor A1 were greater than 100000 nM and 1400 nM, respectively. This compound also came in with a UN in the experiment on Rattus norvegicus [3] of 117 mg/dL. In the experiment on Rattus norvegicus [5], this compound yielded a Cr of 3.51 mg/dL.

In the case of `CCCCn1c(=O)c2nc(C34CC5CC(CC3C5)C4)[nH]c2n(CCCC)c1=O`, the T/C with Rattus norvegicus [7] stood at 1.89; in the experiment on Rattus norvegicus [13], 2.26; in the experiment on Rattus norvegicus [15], 1.83; in the experiment on Rattus norvegicus [16], 2.58; in the experiment with Rattus norvegicus [24] it was 0.98; in the experiment with Rattus norvegicus [26], 0.74. The values for the T/C in the experiment on Rattus norvegicus [27] and with Rattus norvegicus [30] were 2.45 and 2.25, respectively. In addition, the Urine volume with Rattus norvegicus [8] stood at 1.76 ml 6hr-1 100g-1; in the experiment on Rattus norvegicus [14] it was 2.52 ml 6hr-1 100g-1; with Rattus norvegicus [21], 2.5 ml 6hr-1 100g-1; with Rattus norvegicus [23], 0.78 ml 6hr-1 100g-1. Moreover, the Cr with Rattus norvegicus [9] was found to be 2.82 mg/dL; with Rattus norvegicus [12], 2.63 mg/dL. The Na is 0.412 m equiv 6hr-1 100g-1 with Rattus norvegicus [10], 0.426 m equiv 6hr-1 100g-1 in the experiment with Rattus norvegicus [17], 0.279 m equiv 6hr-1 100g-1 in the experiment with Rattus norvegicus [28] and 0.176 m equiv 6hr-1 100g-1 with Rattus norvegicus [29]. Also, the UN came out at 62.1 mg/dL with Rattus norvegicus [11] and 119.4 mg/dL with Rattus norvegicus [19]. At Adenosine A2 receptor, this compound displayed a Ki of 1100 nM. Moreover, the “Na+/K+” value with Rattus norvegicus [18] is on record as 1.61; in the experiment on Rattus norvegicus [20] it was 1.89; in the experiment with Rattus norvegicus [22], 1.58; with Rattus norvegicus [31], 1.05. The Inhibition in the experiment filed under Rattus norvegicus [25] was 45% and 19%.

Source of the values: ChEMBL document CHEMBL1125524, “Adenosine A1 antagonists. 2. Structure-activity relationships on diuretic activities and protective effects against acute renal failure” (J Med Chem, 1992).
